Key:
Format in all cases: in vivo, C57BL/6 mice
[1] = system: radiation-induced pulmonary fibrosis (RIPF); assay: Degree of inflammation and fibrosis, H&E and Masson's Trichrome staining, radiation-induced pulmonary fibrosis; settings: SBRT 90 Gy, nintedanib 60 mg/kg, oral, 2 weeks after radiation exposure, vs untreated
Description: (§1) One hour before stereotactic body radiation therapy (SBRT; 90 Gy, 4 mm collimator), DCTP and nintedanib, an FDA-approved drug known to inhibit pulmonary fibrosis, were orally administered to seven-week-old male C57BL/6 mice. The degree of pulmonary fibrosis and the inhibitory effect on radiation-induced lung injury were observed two weeks after radiation exposure.
(§2) The DCTP drug was administered at a dose of 30 mg/kg, and nintedanib was administered once daily (o.d.) at a dose of 60 mg/kg.
In addition, to analyze the degree of inflammatory response and the degree of fibrosis two weeks after radiation exposure, H&E staining and Masson's Trichrome staining were performed, and the results are shown in FIG. 5.
as §1, with “prior to” for “before”, “PXDP” for “DCTP”
(§3) The PXDP drug was administered at a dose of 100 mg/kg, and nintedanib was administered once daily (o.d.) at a dose of 60 mg/kg. To analyze the degree of inflammatory response and the degree of fibrosis 2 weeks after radiation exposure, H&E staining and Masson's Trichrome staining were performed, and the results are shown in FIG. 11.

[2] = system: idiopathic pulmonary fibrosis induced by bleomycin; assay: Degree of inflammation and fibrosis, H&E and Masson's Trichrome staining, bleomycin-induced idiopathic pulmonary fibrosis; settings: bleomycin 1.5 U/kg, nintedanib 60 mg/kg, oral once daily for two weeks from day 14, vs untreated
Description: (§4) Each drug was administered starting 14 days after the administration of bleomycin. The drug was orally administered at a dose of 20 mg/kg once daily for two weeks (a total of 13 administrations). The control drug, nintedanib, was administered at a dose of 60 mg/kg, and the co-administration group was orally administered nintedanib (60 mg/kg) together with DCTP (20 mg/kg) once daily for two weeks (a total of 13 administrations).
The results of H&E and Masson's Trichrome staining performed to evaluate the degree of inflammation and fibrosis are shown in FIG. 3.
(§5) Each drug was administered starting 14 days after the administration of bleomycin. Nintedanib and PXDP were each orally administered at a dose of 60 mg/kg once daily for two weeks (a total of 13 administrations), and the group treated with the combination was orally administered nintedanib (60 mg/kg) together with PXDP (60 mg/kg) once daily for two weeks (a total of 13 administrations).
The results of H&E and Masson's Trichrome staining performed to evaluate the degree of inflammation and fibrosis are shown in FIG. 8.

[3] = system: radiation-induced pulmonary fibrosis (RIPF); assay: Inhibitory effect on radiation-induced pulmonary fibrosis, Micro-CT imaging; settings: SBRT 90 Gy, 2 weeks after radiation exposure; for degree of fibrosis by Micro-CT imaging: vs untreated
Description: as §1, §2
as §1, with “prior to” for “before”, “PXDP” for “DCTP”
as §3

[4] = system: idiopathic pulmonary fibrosis induced by bleomycin; assay: Inhibitory effect on idiopathic pulmonary fibrosis induced by bleomycin, Micro-CT imaging; settings: bleomycin 1.5 U/kg, nintedanib 60 mg/kg, oral once daily for two weeks from day 14, 4 weeks after bleomycin, vs untreated
Description: as §4, §5

[5] = Example 3, FIG. 5, DCTP 30 mg/kg
[6] = Example 5, FIG. 8, PXDP 60 mg/kg
[7] = Example 6, FIG. 10, PXDP 100 mg/kg, nintedanib 60 mg/kg, oral
[8] = Example 5, FIG. 7, PXDP 60 mg/kg
[9] = Example 6, FIG. 11, PXDP 100 mg/kg

Row | Structure (SMILES) | degree of inflammation and fibrosis by H&E and Masson's Trichrome staining [1, 5] | degree of inflammation and fibrosis by H&E and Masson's Trichrome staining [2, 6] | effect compared with nintedanib (Micro-CT imaging) ([3]; Example 6, FIG. 10, PXDP 100 mg/kg vs nintedanib 60 mg/kg, oral) | degree of fibrosis by Micro-CT imaging [3, 7] | degree of fibrosis by Micro-CT imaging [4, 8] | degree of inflammation and fibrosis by H&E and Masson's Trichrome staining [1, 9] | degree of inflammation and fibrosis by H&E and Masson's Trichrome staining ([2]; Example 2, FIG. 3, DCTP 20 mg/kg) | degree of fibrosis by Micro-CT imaging ([3]; Example 3, FIG. 4, nintedanib 60 mg/kg oral once daily) | degree of fibrosis by Micro-CT imaging ([4]; Example 2, FIG. 2, DCTP 20 mg/kg)
1 | COc1cc2ncnc(N(C(=O)OCCN3CCN(C)CC3)c3ccc(F)c(Cl)c3)c2cc1NC(=O)/C=C/CN1CCCCC1 [DCTP, 2-(4-methylpiperazin-1-yl)ethyl (E)-(3-chloro-4-fluorophenyl) (7-methoxy-6-(4-(piperidin-1-yl)but-2-enamido)quinazolin-4-yl) carbamate] | reduction in fibrosis and inflammation in the lungs |  |  |  |  |  |  |  | 
2 | CN1CCN(CCOC(=O)N(Cc2ccc(C(F)(F)F)nc2)c2ccc(Cc3c[nH]c4ncc(Cl)cc34)cn2)CC1 [PXDP, 2-(4-methylpiperazin-1-yl)ethyl (5-((5-chloro-1H-pyrrolo[2,3-b]pyridin-3-yl)methyl)pyridin-2-yl)((6-(trifluoromethyl)pyridin-3-yl)methyl) carbamate] |  | alleviation of pulmonary fibrosis and inflammation | superior to that of nintedanib | reduction in the degree of fibrosis | reduction in the degree of fibrosis | alleviation of fibrosis and inflammation in the lungs |  |  | 
3 | COC(=O)c1ccc2c(c1)NC(=O)/C2=C(\Nc1ccc(N(C)C(=O)CN2CCN(C)CC2)cc1)c1ccccc1 [nintedanib] | reduction in fibrosis and inflammation in the lungs | alleviation of pulmonary fibrosis and inflammation |  | reduction in the degree of fibrosis | reduction in the degree of fibrosis | alleviation of fibrosis and inflammation in the lungs | alleviation of pulmonary fibrosis and inflammation | reduction in the degree of fibrosis | reduction in the degree of fibrosis
